Measurements taken from EP0070331A2, “Cephalosporin derivatives, their preparation, compositions containing them, and their use in the treatment of diseases” (F. HOFFMANN-LA ROCHE & CO. Aktiengesellschaft, priority 1981, dated 1983).

How the values were obtained:
Escherichia coli = assay: Curative dose (CD50) in infected mice, Escherichia coli; type: in vivo; settings: Maus, dose at which 50% of mice survive
Streptococcus pyogenes = assay: Curative dose (CD50) in infected mice, Streptococcus pyogenes; type: in vivo; settings: Maus, dose at which 50% of mice survive
Neisseria meningitidis = assay: Curative dose (CD50) in infected mice, Neisseria meningitidis; type: in vivo; settings: po, Maus, dose at which 50% of mice survive
Description: (§1) Die orale antimikrobielle Wirksamkeit der erfindungsgemässen Produkte kann anhand von in vivo-Versuchen an der Maus nachgewiesen werden.

Serratia marcescens = assay: Curative dose (CD50) in infected mice, Serratia marcescens; type: in vivo; settings: Maus, dose at which 50% of mice survive
Description: as §1

in vivo = settings: mouse, po
[1] = Blood levels after oral administration in the rat; type: in vivo; settings: Ratte, orale Dosis 20 mg/kg, read-out: Antibiotikumkonzentration im Blut
Description: ..Die nach oraler Gabe erzielten Blutspiegelwerte ergeben sich gemäss folgendem Vergleich an der Ratte.

Structure (SMILES): CC1=C(C(=O)O)N2C(=O)[C@@H](NC(=O)[C@H](N)c3ccccc3)[C@H]2SC1 [Cephalexin]
- ED50 (Escherichia coli; po): 3.2 mg/kg
- ED50 (Escherichia coli; sc): 2.1 mg/kg
- ED50 (Streptococcus pyogenes; po): 1.8 mg/kg
- ED50 (Streptococcus pyogenes; sc): 1.2 mg/kg
- ED50 (Neisseria meningitidis): 1.2 mg/kg
- ED50 (Serratia marcescens; po): > 50 mg/kg
- ED50 (Serratia marcescens; sc): > 50 mg/kg

Structure (SMILES): CO/N=C(\C(=O)N[C@@H]1C(=O)N2C(C(=O)OCOC(=O)C(C)(C)C)=C(CSc3nc(C(=O)OCOC(=O)C(C)(C)C)nn3C)CS[C@H]12)c1csc(N)n1 [Produkt A, Methylen (6R,7R)-7-[2-(2-Amino-4-thiazolyl)-2-[ (Z)-methoxyimino]-acetamido]-3-[[[2-methyl-5-[[(pivaloyloxy)methoxy]carbonyl]-2H-1,2,4-triazol-3-yl]thio]methyl]-8-oxo-5-thia-1-azabicyclo[4.2.0]oct-2-en-2-carboxylat-pivalat]
- LD50 at 24 h (in vivo): > 4000 mg/kg
- ED50 (Streptococcus pyogenes; po): 0.95 mg/kg
- ED50 (Neisseria meningitidis): 0.14 mg/kg
- ED50 (Serratia marcescens; po): 0.68 mg/kg
- ED50 (Serratia marcescens; sc): 0.05 mg/kg
- concentration at 0.25 h ([1]; after 15 min): 6000 ng/mL
- concentration at 0.5 h ([1]; after 30 min): 12000 ng/mL
- concentration at 0.75 h ([1]; after 45 min): 12000 ng/mL
- concentration at 1 h ([1]; after 60 min): 10000 ng/mL
- concentration at 1.5 h ([1]; after 90 min): 8000 ng/mL
- concentration at 2.5 h ([1]; after 150 min): 5000 ng/mL
